Like-named read-outs stand apart in the source and are kept apart here.
Tests used:
VIM-2 = biological target: T1, VIM-2 (Escherichia coli, UniProt Q5U7L7); test: MBL inhibition, reporter substrate method, VIM-2; assay type: biochemical
T1 construct: made in house; host or cells: E. coli BL21(DE3) derivative, pET-9a
Method: (§1) Compounds were prepared in DMSO at a final concentration of 50 mM prior to dilution in the assay buffer. The reaction rate was measured as the variation of absorbance observed upon substrate hydrolysis in a UV-Vis spectrophotometer or microplate reader at a wavelength of 300 nm (imipenem, meropenem), 260 nm (cefotaxime), or 482 nm (nitrocefin) and in the presence of a purified MBL enzyme (such as VIM-1, VIM-2, VIM-4, NDM-1, and IMP-1, at a final concentration ranging from 1 to 70 nM).
(§2) These enzymes were overproduced in derivatives of E. coli BL21(DE3) carrying a pET-9 a (IMP-1, VIM-1, VIM-2, and VIM-4) or pET-15 b (NDM-1) vector into which the metallo-β-lactamase-encoding open reading frame was cloned. Bacterial strains were grown in the auto-inducing medium, ZYP-5052, supplemented with 50 μg/mL kanamycin for 24 h at 37 °C [38]. IMP-1, VIM-1, VIM-2, and VIM-4 were purified by ion-exchange and gel filtration chromatography using an AKTA Purifier platform (GE Healthcare, Uppsala, Sweden) as previously described. NDM-1 (residues 37-270) was produced as an amino-terminal 6 xHis-tag fusion protein and was purified using affinity chromatography. After growth for 26 h at 25 °C, bacterial cells were harvested by centrifugation (10,000× g, 30 min, 4 °C), resuspended in 10 mM HEPES buffer (pH 7.5) containing 0.15 M NaCl (buffer A) in one-fifth of the original culture volume, and lysed by sonication. Cellular debris was removed by centrifugation (12,000× g, 40 min, 4 °C). The clarified sample was loaded on a HisTrap HP column (bed volume, 5 mL; GE Healthcare), followed by a wash step (25 mL) with buffer A containing 20 mM imidazole. Proteins were eluted using buffer A containing 350 mM imidazole. The resulting protein sample was desalted (HiPrep 26/10 Desalting column, GE Healthcare) using 20 mM triethanolamine (pH 7.2) supplemented with 50 μM ZnSO4 and concentrated using an Amicon Ultra-15 (MW cut-off, 10 kDa; Millipore, Burlington, MA, USA). The concentrated sample was loaded on a Superdex 75 prep grade column (XK16/100 column; bed volume, 140 mL; GE Healthcare) and the proteins eluted with buffer A containing 50 μM ZnSO4. The active fractions were pooled and stored at −20 °C. The purity of the protein preparations was estimated >95% by SDS-PAGE analysis. The authenticity of the enzyme preparations was confirmed by electron spray ionization mass spectrometry, as previously described.
(§3) The inhibition constants (Ki) were determined on the basis of a model of competitive inhibition by analyzing the dependence of the ratio v0/vi (v0, hydrolysis velocity in the absence of inhibitor; vi, hydrolysis velocity in the presence of inhibitor) as a function of [I] as already described. The slope of the plot of v0/vi vs. [I], which corresponds to Km^S/(Km^S + [S])Ki (where Km^S is the Km value of the reporter substrate and [S] its concentration in the reaction mixture) and allowed the calculation of the Ki value. Alternatively, a Dixon plot analysis was carried out by measuring the initial hydrolysis rates in the presence of variable concentrations of inhibitor and substrate. This allowed Ki values to be determined and supported the hypothesis that the various compounds behaved as competitive inhibitors of the various tested enzymes. The assays were performed in triplicate.

NDM-1 = NDM-1 (Klebsiella pneumoniae, UniProt C7C422); test: MBL inhibition, reporter substrate method, NDM-1; assay type: biochemical
Chain of NDM-1 (C7C422 37-270 limits assumed): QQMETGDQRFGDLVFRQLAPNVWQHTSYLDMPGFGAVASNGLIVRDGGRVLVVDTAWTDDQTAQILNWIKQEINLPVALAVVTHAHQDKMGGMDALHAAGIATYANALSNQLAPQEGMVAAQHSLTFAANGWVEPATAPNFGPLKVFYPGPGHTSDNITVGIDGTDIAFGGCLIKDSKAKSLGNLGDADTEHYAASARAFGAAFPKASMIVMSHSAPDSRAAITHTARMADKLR
Method: as §1, §2, §3

IMP-1 = biological target: T2, IMP-1 (Serratia marcescens, UniProt P52699); test: MBL inhibition, reporter substrate method, IMP-1; assay type: biochemical
T2 construct: made in house; host or cells: E. coli BL21(DE3) derivative, pET-9a
T2 sequence (P52699 19-246 limits assumed): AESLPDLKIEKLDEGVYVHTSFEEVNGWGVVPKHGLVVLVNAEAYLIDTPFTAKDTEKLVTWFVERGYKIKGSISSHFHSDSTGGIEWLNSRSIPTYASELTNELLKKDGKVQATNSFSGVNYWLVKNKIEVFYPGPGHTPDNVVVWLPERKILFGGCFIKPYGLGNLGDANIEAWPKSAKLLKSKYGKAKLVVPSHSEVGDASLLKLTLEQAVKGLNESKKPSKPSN
Method: as §1, §2, §3

VIM-4 = biological target: T3, VIM-4 (Pseudomonas aeruginosa, UniProt A0A0F7KYQ8, S205R); test: MBL inhibition, reporter substrate method, VIM-4; assay type: biochemical; conditions: read-out: Percentage of Inhibition at 100 μM Inhibitor, VIM-4
T3 construct: made in house; host or cells: E. coli BL21(DE3) derivative, pET-9a
Method: as §1, §2, §3

VIM-1 = biological target: T4, VIM-1 (Pseudomonas aeruginosa, UniProt A0A0F7KYQ8); test: MBL inhibition, reporter substrate method, VIM-1; assay type: biochemical; conditions: read-out: Inhibition of VIM-1 (dash)
T4 construct: made in house; host or cells: E. coli BL21(DE3) derivative, pET-9a
Method: as §1, §2, §3

[1] = tested on: E. coli LZ2310(pLBII-VIM-2); test: microbe, parasite or virus in culture; assay type: cell-based, Escherichia coli; conditions: 220 μg added to 30 μg cefoxitin disk (positive control)
Method: The potential activity of selected compounds was assessed by the agar disk-diffusion method, according to the CLSI (Clinical Laboratory Standard Institute) recommendations, using Mueller–Hinton medium. The inhibitor (dissolved in DMSO) was added (maximum volume of 15 μL) to a commercially available disk containing a defined amount of a β-lactam antibiotic (30 μg of cefoxitin (Oxoid, Milan, Italy)). After incubation (18 h at 35 °C), the diameter of the growth inhibition zone was measured and compared to that obtained in the absence of inhibitor. DMSO and EDTA (220 μg) were used as negative and positive controls, respectively. Experiments were performed in triplicate.
These tests were performed on an isogenic laboratory strain obtained after transforming Escherichia coli LZ2310 strain with a derivative of the high copy number plasmid pLB-II carrying the cloned blaVIM-2 gene harboring a cloned gene encoding the functional metallo-β-lactamase. Strain LZ2310 is a triple knockout mutant derived from K12 in which the genes encoding for components of the three major efflux pump systems were inactivated (genotype, ∆norE ∆mdfA N43 acrA1) and was used to generate an hyperpermeable background for MBL production and investigate the potential contribution of such mechanisms to inhibitor efflux.

[2] = read-out: Inhibition of VIM-2 (dash in Ki column)
[3] = read-out: Inhibition of NDM-1 (dash in Ki column)
[4] = read-out: Inhibition of IMP-1 (dash in Ki column)
[5] = read-out: Percentage of Inhibition at 100 μM Inhibitor, VIM-2 (dash)
[6] = read-out: Percentage of Inhibition at 100 μM Inhibitor, NDM-1 (dash)
[7] = read-out: Percentage of Inhibition at 100 μM Inhibitor, IMP-1 (dash)

O=C(O)c1ccccc1CNn1c(-c2cc3ccccc3[nH]2)n[nH]c1=S [Compound 5]
inhibition at 100 µM (VIM-2; [2]): < 40% | inhibition at 100 µM (NDM-1; [3]): < 40% | inhibition at 100 µM (IMP-1; [4]): < 40%

O=C(O)c1ccccc1CNn1c(CCc2ccccc2)n[nH]c1=S [Compound 8]
inhibition at 100 µM (VIM-2; [2]): < 40% | inhibition at 100 µM (NDM-1; [3]): < 40% | inhibition at 100 µM (IMP-1; [4]): < 40%

O=[N+]([O-])c1ccccc1CNn1c(CCc2ccccc2)n[nH]c1=S [Compound 9]
inhibition at 100 µM (VIM-2; [2]): < 40% | inhibition at 100 µM (NDM-1; [3]): < 40% | inhibition at 100 µM (IMP-1; [4]): < 40%

O=C(O)c1ccc(CNn2c(CCc3ccccc3)n[nH]c2=S)cc1 [Compound 10]
inhibition at 100 µM (VIM-2; [2]): < 40% | inhibition at 100 µM (NDM-1; [3]): < 40% | inhibition at 100 µM (IMP-1; [4]): < 40%

O=C(O)c1ccccc1CNn1c(CC(c2ccccc2)c2ccccc2)n[nH]c1=S [Compound 11]
inhibition at 100 µM (VIM-2; [2]): < 40% | Inhibition of NDM-1 (in words) (NDM-1): moderately inhibited | Ki (NDM-1; hydrazine series, read-out: Ki Value NDM-1): 16.4 ± 2.6 µM | inhibition at 100 µM (IMP-1; [4]): < 40%

O=C(O)c1ccccc1CNn1c(COc2ccc3ccccc3c2)n[nH]c1=S [Compound 12]
inhibition at 100 µM (VIM-2; [2]): < 40% | inhibition at 100 µM (NDM-1; [3]): < 40% | inhibition at 100 µM (IMP-1; [4]): < 40%

O=C(O)c1ccccc1C(=O)Nn1c(-c2ccccc2)n[nH]c1=S [Compound 17]
Ki (VIM-2; hydrazine and hydrazide series, read-out: Ki Value VIM-2): > 100 µM | inhibition at 100 µM (VIM-2; [5]): < 20% | inhibition at 100 µM (NDM-1; [6]): < 20% | inhibition at 100 µM (IMP-1; [7]): < 20%

O=C(O)c1ccccc1C(=O)Nn1c(Cc2ccccc2)n[nH]c1=S [Compound 18]
inhibition at 100 µM (VIM-2; [5]): < 20% | inhibition at 100 µM (NDM-1; [6]): < 20% | inhibition at 100 µM (IMP-1; [7]): < 20%

O=C(O)c1ccccc1C(=O)Nn1c(-c2cccc(-c3ccccc3)c2)n[nH]c1=S [Compound 19]
inhibition at 100 µM (VIM-4): 41% | inhibition at 100 µM (VIM-2; read-out: Percentage of Inhibition at 100 μM Inhibitor, VIM-2): 36% | inhibition at 100 µM (NDM-1; read-out: Percentage of Inhibition at 100 μM Inhibitor, NDM-1): 42% | inhibition at 100 µM (VIM-1): < 30% | inhibition at 100 µM (IMP-1; read-out: Percentage of Inhibition at 100 μM Inhibitor, IMP-1): 40%

O=C(O)CCC(=O)Nn1c(-c2cccc(-c3ccccc3)c2)n[nH]c1=S [Compound 20]
inhibition at 100 µM (VIM-2; [5]): < 20% | inhibition at 100 µM (NDM-1; [6]): < 20% | inhibition at 100 µM (IMP-1; [7]): < 20%

O=C(O)CN(CCN(CC(=O)O)CC(=O)O)CC(=O)O [EDTA, reference compound]
Inhibition Zone Diameter [1]: 28 mm
